According to publication PMC8899577, “Targeting the anti-apoptotic Bcl-2 family proteins: machine learning virtual screening and biological evaluation of new small molecules” (Theranostics, 2022):

Columns and labels:
Bcl-xL = Bcl-xL (Homo sapiens, UniProt Q07817); experiment: SPR binding to immobilized Bcl-xL; conditions: 25 °C, 2-site fit, highest affinity site
Protocol: FastStep experiments were performed with a SensiQ Pioneer apparatus. Bcl-2 immobilization on COOH5 sensorchips was carried out essentially as previously reported, [40]. All the experiments were carried out at 25 °C in degassed HEPES 20 mM, pH 7.4, NaCl 150 mM, 0.005% surfactant P20 + 2% DMSO (HBSP2%D). […] Each sensorgram is the average of at least three experiments. The decrease in Response Units (RU) after 165 s indicates analyte dissociation from the immobilized Bcl-2 upon HSBP2%D buffer injection. Control SPR experiments were carried out measuring sensorgrams on Bcl-xL and Mcl-1 (ligands) immobilized on COOH5 sensorchips as previously reported at 25 °C in degassed HBSP2%D buffer. […] Each sensorgram is the average of at least three experiments. The decrease in RU after 180 s indicates analyte dissociation from the immobilized ligands upon HSBP2%D buffer injection. Kinetic evaluation of the sensorgrams was carried out using the Qdat 4.0 program; best fittings were obtained with 2 sites and indicated in red (reported KD values refer to dissociation constants of the highest affinity site).
Each sensorgram is the average of at least three experiments.

Sbcl2 melanoma cells = experiment: Cell viability by MTT, Sbcl2; assay type: cell-based; conditions: Homo sapiens, 72 h
Protocol: The effect of compounds on cell viability was performed by measuring 3-[4,5-dimethylthiazol-2-yl]-2,5-diphenyltetrazolium bromide inner salt (MTT, Sigma-Aldrich) dye absorbance (solid tumor cells) or by quantization of ATP present in metabolically active cells using CellTiter-Glo® Luminescent (Promega, Fitchburg, Wisconsin, USA) (hematologic cells) following manifacturer's protocol. To evaluate the cell colony-forming ability, cell suspension from different samples was seeded into 60-mm Petri dishes. After 10 days, colonies were stained with 2% methylene blue in 95% ethanol and counted (1 colony > 50 cells). The surviving fractions were calculated as the ratio of absolute survival of the treated sample/survival of DMSO-treated control sample.
Figure 1 Cytotoxic screening of putative inhibitors of Bcl-2 anti-apoptotic proteins. (A) Flow cytometric quantification of propidium iodide exclusion assay in HL60 cells treated with the 49 putative Bcl-2 family inhibitors (50 μM, 72 h). (B) Analysis of cell viability by CellTiterGlo assay in HL60 cells treated for 24 h with concentrations ranging from 5 to 50 μM of the indicated compounds. (C-D) Analysis of cell viability by MTT assay in (C) M14 and (D) Sbcl2 melanoma cell lines treated for 72 h with concentrations ranging from 5 to 50 μM of the indicated compounds. […]

M14 cells [1] = experiment: Western blot of PARP1 cleavage, M14; assay type: cell-based, Human; conditions: 72 h
Protocol: (§1) Western blot analyses of total protein extracts were performed as previously described. Immunodetection was performed using antibodies directed to poly (ADP-ribose) polymerase (PARP; BD Biosciences San Diego, CA, USA), LC3B (Cell Signaling Technology, Danvers, MA), HSP72/73 (Calbiochem, EMD Biosciences, La Jolla, CA), Bcl-2 (SC-509, Santa Cruz Biotechnology Inc, Dallas, TX, USA), Bcl-xL (SC-271121, Santa Cruz Biotechnology Inc), Mcl-1 (SC-12756, Santa Cruz Biotechnology Inc) α-tubulin (Santa Cruz Biotechnology Inc) actin (Sigma-Aldrich, St. Louis, Missouri, USA). Anti-rabbit or anti-mouse immunoglobulin G-horseradish peroxidase-conjugated antibodies (Amersham Biosciences, Freiburg, Germany) were used as secondary antibody. Images were acquired by Image Lab Software (Bio-Rad, Hercules, CA, USA), using a ChemiDoc System instrument (Bio-Rad). The densitometric evaluation was performed using Image J software and normalized with relative controls.
(§2) Figure 5 Analysis of apoptosis induction by IS20 and IS21 in leukemia, melanoma and NSCLC cells. […] (A-F) Reported images are representative of two independent experiments with similar results. HSP72/73 or α-Tubulin are shown as loading and transferring control. (G) Flow cytometric quantification of cells in the subG1 peak of cell cycle distribution by propidium iodide staining in HL60 cell line treated with IS20 or IS21 (20 μM for 24 h) and in M14, H1299 and MDA-MB-231 cell lines treated with IS20 or IS21 (20 μM for 72 h). Data are reported as mean ± SD of three independent experiments. p-values were calculated between control (Ctrl) and treated cells, * p < 0.05. (H) Flow cytometric quantification of cells in the subG1 peak by propidium iodide staining in M14 and H1299 cell lines treated with IS20 or IS21 (20 μM, 72 h) in presence or absence of the pan caspase inhibitor z-VAD (50 μM). p-values were calculated between treated control (Ctrl) cells, # p < 0.01, ## p < 0.001 or between cells treated with IS20 or IS21 alone or in combination with z-VAD, * p < 0.05, ** p < 0.005. (G-H) Data are reported as mean of two (H) or three (G) experiments ± SD.

MDA-MB-231 cells = experiment: Flow cytometry subG1 peak (PI staining), MDA-MB-231; assay type: cell-based, Human; conditions: 20 µM for 72 h
Protocol: Flow cytometric analysis (BD Accuri™ C6, BD Biosciences) was performed to evaluate cell cycle distribution by propidium iodide (PI) staining, and cell viability by using the PI dye exclusion assay as previously reported.
as §2

M14 cells [2] = experiment: Western blot of LC3B-I/LC3B-II (autophagy), M14; assay type: cell-based, Human; conditions: 72 h
Protocol: as §1
Figure 6 Analysis of autophagosome accumulation in M14 and H1299 cells after treatment with IS20 or IS21. Western blot analysis of LC3B-I and LC3B-II protein levels in (A) M14, and (B) H1299 cell lines untreated (Ctrl) or treated with IS20 or IS21 for 72 h at the indicated concentrations. (C) Western blot analysis of LC3B-I and LC3B-II levels in HL60 and U937 cell lines untreated (Ctrl) or treated with IS20 or IS21 (20 μM for 24 h). (A-C) Reported images are representative of two independent experiments with similar results. HSP72/73, Actin or α-Tubulin are shown as loading and transferring control. […] Ratio of LC3B-II on LC3B-I levels, after normalization on HSP72/73, Actin or α-Tubulin, is quantified by densitometric analysis. (D) (Upper panels) Representative images and (lower panels) relative quantification of fluorescence microscopic analysis of LC3B puncta positive cells in M14 EGFP-LC3B and H1299 EGFP-LC3B transfected cells, treated with IS20 or IS21 (20 µM for 72h). […] Cells with more than 10 puncta were considered autophagy-positive. p-values were calculated between untreated (Ctrl) and treated cells, * p < 0.05.

Bcl-xL, sequence (Q07817 whole entry): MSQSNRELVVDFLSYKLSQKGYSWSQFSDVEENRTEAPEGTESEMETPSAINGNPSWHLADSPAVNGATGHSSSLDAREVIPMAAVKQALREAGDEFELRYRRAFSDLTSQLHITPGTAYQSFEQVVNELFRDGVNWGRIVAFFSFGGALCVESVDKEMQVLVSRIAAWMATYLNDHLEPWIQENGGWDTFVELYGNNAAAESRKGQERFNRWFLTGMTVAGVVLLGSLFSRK

CCCCCOc1ccc(C2/C(=C(\O)c3ccc4c(c3)CC(C)O4)C(=O)C(=O)N2c2nnc(SCc3ccc(Cl)cc3)s2)cc1OCC (stereo not shown) [IS21]
Kd (Bcl-xL): 0.51 ± 0.17 µM | IC50 (Sbcl2 melanoma cells): 19.8 µM | PARP1 cleavage, M14 (M14 cells [1]): cleavage of PARP1 | subG1 peak of cell cycle distribution, MDA-MB-231 (MDA-MB-231 cells): not evident | ratio of LC3B-II on LC3B-I / LC3B-II protein level, M14 (M14 cells [2]): higher level

CCCCOc1ccc(C2/C(=C(\O)c3ccc4c(c3)CC(C)O4)C(=O)C(=O)N2c2nnc(SCc3ccc(Cl)cc3)s2)cc1OCC (stereo not shown) [IS20]
Kd (Bcl-xL): 0.42 ± 0.09 µM | IC50 (Sbcl2 melanoma cells): 21 µM | PARP1 cleavage, M14 (M14 cells [1]): cleavage of PARP1 | subG1 peak of cell cycle distribution, MDA-MB-231 (MDA-MB-231 cells): not evident | ratio of LC3B-II on LC3B-I / LC3B-II protein level, M14 (M14 cells [2]): higher level
